Data taken from patent US9113629B2, “4-amino-6-(4-substituted-phenyl)-picolinates and 6-amino-2-(4-substituted-phenyl)-pyrimidine-4-carboxylates and their use as herbicides” (DOW AGROSCIENCES LLC, priority 2013, dated 2015).
Read-outs that look alike come from different tables or passages of the source.

Tests used:
[1] = test system: Key Broadleaf Weed and Crop Species; assay: Post-emergent Test II herbicidal activity (Table 5); type: in vivo; conditions: post-emergence, 336 h, post-emergent, 14 days after application; for pest or weed control at 70 g/ha: 70 g ai/ha; for pest or weed control at 140 g/ha: 140 g ai/ha
Outline: (§1)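 Post-emergence foliar spray, 187 L/ha, track sprayer at 43 cm above canopy. Carrier: acetone/water/IPA/DMSO/Atplus 411F/Triton X-155. Plants at 1st–2nd true leaf; subirrigated afterwards; % injury scored visually at 14 d.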

[2] = test system: Key Grass and Sedge Weeds as well as Grass Crops; assay: Post-emergent Test II herbicidal activity (Table 6); type: in vivo; conditions: post-emergence, 336 h; for pest or weed control at 70 g/ha: application rate 70 g ai/ha; for pest or weed control at 140 g/ha: application rate 140 g ai/ha
Outline: as §1

[3] = ABUTH: velvetleaf (Abutilon theophrasti), read-out: Visual Growth Reduction (%) 14 Days After Application ABUTH
[4] = AMARE: redroot pigweed (Amaranthus retroflexus), read-out: Visual Growth Reduction (%) 14 Days After Application AMARE
[5] = BRSNN: oilseed-rape, canola (Brassica napus), read-out: Visual Growth Reduction (%) 14 Days After Application BRSNN
[6] = CHEAL: lambsquarters (Chenopodium album), read-out: Visual Growth Reduction (%) 14 Days After Application CHEAL
[7] = EPHHL: wild poinsettia (Euphorbia heterophylla), read-out: Visual Growth Reduction (%) 14 Days After Application EPHHL
[8] = HELAN: sunflower (Helianthus annuus), read-out: Visual Growth Reduction (%) 14 Days After Application HELAN
[9] = VIOTR: wild pansy (Viola tricolor), read-out: Visual Growth Reduction (%) 14 Days After Application VIOTR
[10] = Triticum aestivum, TRZSS (wheat), read-out: Visual Growth Reduction (%) 14 Days After Application, TRZSS
[11] = CYPES: yellow nutsedge (Cyperus esculentus), read-out: Visual Growth Reduction (%) 14 Days After Application, CYPES
[12] = DIGSA: crabgrass (Digitaria sanguinalis), read-out: Visual Growth Reduction (%) 14 Days After Application, DIGSA
[13] = ECHCG: barnyardgrass (Echinochloa crus-galli), read-out: Visual Growth Reduction (%) 14 Days After Application, ECHCG
[14] = ORYSA: rice (Oryza sativa), read-out: Visual Growth Reduction (%) 14 Days After Application, ORYSA
[15] = SETFA: giant foxtail (Setaria faberi), read-out: Visual Growth Reduction (%) 14 Days After Application, SETFA
[16] = SORVU: grain sorghum (Sorghum vulgare), read-out: Visual Growth Reduction (%) 14 Days After Application, SORVU
[17] = ZEAMX: maize, corn (Zea mays), read-out: Visual Growth Reduction (%) 14 Days After Application, ZEAMX

Row | SMILES | pest or weed control at 70 g/ha [1, 3] [%] | pest or weed control at 140 g/ha [1, 3] [%] | pest or weed control at 70 g/ha [1, 4] [%] | pest or weed control at 140 g/ha [1, 4] [%] | pest or weed control at 70 g/ha [1, 5] [%] | pest or weed control at 140 g/ha [1, 5] [%] | pest or weed control at 70 g/ha [1, 6] [%] | pest or weed control at 140 g/ha [1, 6] [%] | pest or weed control at 70 g/ha [1, 7] [%] | pest or weed control at 140 g/ha [1, 7] [%] | pest or weed control at 70 g/ha [1, 8] [%] | pest or weed control at 140 g/ha [1, 8] [%] | pest or weed control at 70 g/ha [1, 9] [%] | pest or weed control at 140 g/ha [1, 9] [%] | pest or weed control at 70 g/ha [2, 10] [%] | pest or weed control at 140 g/ha [2, 10] [%] | pest or weed control at 70 g/ha [2, 11] [%] | pest or weed control at 140 g/ha [2, 11] [%] | pest or weed control at 70 g/ha [2, 12] [%] | pest or weed control at 140 g/ha [2, 12] [%] | other results
1 | Nc1cc(-c2ccc(Br)c(F)c2)nc(C(=O)O)c1Cl [Compound 110, 4-Amino-6-(4-bromo-3-fluorophenyl)-3-chloropicolinic acid] | 95 to 100 | 95 to 100 | 95 to 100 | 95 to 100 | 95 to 100 | 95 to 100 | 95 to 100 | 95 to 100 | 95 to 100 | 95 to 100 | 95 to 100 | 95 to 100 | 45 to 59 | 45 to 59 | 45 to 59 | 45 to 59 | 45 to 59 | 45 to 59 | 75 to 84 | 75 to 84 | pest or weed control at 70 g/ha [2, 13]: 60 to 74%; pest or weed control at 140 g/ha [2, 13]: 75 to 84%; pest or weed control at 70 g/ha [2, 14]: 0 to 29%; pest or weed control at 140 g/ha [2, 14]: 0 to 29%; pest or weed control at 70 g/ha [2, 15]: 60 to 74%; pest or weed control at 140 g/ha [2, 15]: 60 to 74%; pest or weed control at 70 g/ha [2, 16]: 85 to 94%; pest or weed control at 140 g/ha [2, 16]: 85 to 94%; pest or weed control at 70 g/ha [2, 17]: 45 to 59%; pest or weed control at 140 g/ha [2, 17]: 60 to 74%
2 | COc1c(N)nc(-c2ccc(Br)c(F)c2)nc1C(=O)O [Compound 113, 6-Amino-2-(4-bromo-3-fluorophenyl)-5-methoxypyrimidine-4-carboxylic acid] | 85 to 94 | 85 to 94 | 95 to 100 | 95 to 100 | 95 to 100 | 95 to 100 | 95 to 100 | 95 to 100 | 95 to 100 | 95 to 100 | 95 to 100 | 95 to 100 | 95 to 100 | 95 to 100 | 60 to 74 | 75 to 84 | 95 to 100 | 95 to 100 | 75 to 84 | 75 to 84 | pest or weed control at 70 g/ha [2, 13]: 85 to 94%; pest or weed control at 140 g/ha [2, 13]: 85 to 94%; pest or weed control at 70 g/ha [2, 14]: 30 to 44%; pest or weed control at 140 g/ha [2, 14]: 60 to 74%; pest or weed control at 70 g/ha [2, 15]: 75 to 84%; pest or weed control at 140 g/ha [2, 15]: 75 to 84%; pest or weed control at 70 g/ha [2, 16]: 85 to 94%; pest or weed control at 140 g/ha [2, 16]: 85 to 94%; pest or weed control at 70 g/ha [2, 17]: 85 to 94%; pest or weed control at 140 g/ha [2, 17]: 85 to 94%
3 | COC(=O)c1nc(-c2ccc(Br)c(F)c2)cc(N)c1Cl [Compound 115, methyl 4-amino-6-(4-bromo-3-fluorophenyl)-3-chloropicolinate] | 85 to 94 | 85 to 94 | 95 to 100 | 95 to 100 | 60 to 74 | 75 to 84 | 95 to 100 | 95 to 100 | 95 to 100 | 95 to 100 | 85 to 94 | 95 to 100 | 95 to 100 | 95 to 100 | 0 to 29 | 0 to 29 | 95 to 100 | 95 to 100 | 85 to 94 | 85 to 94 | pest or weed control at 70 g/ha [2, 13]: 85 to 94%; pest or weed control at 140 g/ha [2, 13]: 85 to 94%; pest or weed control at 70 g/ha [2, 14]: 0 to 29%; pest or weed control at 140 g/ha [2, 14]: 0 to 29%; pest or weed control at 70 g/ha [2, 15]: 0 to 29%; pest or weed control at 140 g/ha [2, 15]: 0 to 29%; pest or weed control at 70 g/ha [2, 16]: 85 to 94%; pest or weed control at 140 g/ha [2, 16]: 95 to 100%; pest or weed control at 70 g/ha [2, 17]: 0 to 29%; pest or weed control at 140 g/ha [2, 17]: 0 to 29%
